# Laboratory results reported in patent US7776572B2, “Method for reducing loss of enzyme activity during storage” (Corning Incorporated, priority 1996, dated 2010).
# Tests used:
# Horse IgG = assay: Protein binding by colloidal gold staining, coated medium binding polystyrene plates; conditions: coated medium binding PS; IgG 10 μg/ml, pH 9.4
# Protocol: Except where indicated, the non-ionic surfactants were applied to the hydrophobic surfaces being tested as a 0.1% (weight/volume) solution in isopropanol. A sufficient amount of coating solution was used to cover the surface being testing with a thin layer of the solution (e.g., 25 μl of the solution per well for a standard 24-well plate). In some cases, the solution was applied to surface by spraying; in others, it was poured onto the surface (into the well). Except where indicated, coated samples were either dried at 70° C. for 30 minutes in an air circulated oven or dried at room temperature overnight to evaporate the isopropanol.
# Protein binding was determined in some examples using a colloidal gold straining procedure. In accordance with this procedure, colloidal gold becomes electrostatically attached to bound protein and is detected by measuring absorbance at 550 nanometers. Bio-Rad Laboratories' Colloidal Gold Total Protein Stain was used for this purpose, with absorbance being measured with a Cambridge Technologies Plate Reader (No. 7520).
# The surfactants were coated onto medium binding polystyrene plates (Corning Costar No. 2587) as described in Material and Methods.
# The plates were incubated with IgG as follows: 0.1 ml of Horse IgG (Pierce Labs) at a working concentration of 10 μg/ml in 0.10M NaHCO3 buffer (pH9.4) were added to each well, incubated 30 minutes on a rocker table, and rinsed with dI H2O. The plates were gold stained overnight (0.3 ml/well), rinsed in dI H2O, air dried, and absorbance was measured at 550 nm.
# IgG = assay: IgG/Au staining of coated polystyrene, type of endgroups
# Protocol: Except where indicated, the non-ionic surfactants were applied to the hydrophobic surfaces being tested as a 0.1% (weight/volume) solution in isopropanol. A sufficient amount of coating solution was used to cover the surface being testing with a thin layer of the solution (e.g., 25 μl of the solution per well for a standard 24-well plate). In some cases, the solution was applied to surface by spraying; in others, it was poured onto the surface (into the well). Except where indicated, coated samples were either dried at 70° C. for 30 minutes in an air circulated oven or dried at room temperature overnight to evaporate the isopropanol. Protein binding was determined in some examples using a colloidal gold straining procedure. In accordance with this procedure, colloidal gold becomes electrostatically attached to bound protein and is detected by measuring absorbance at 550 nanometers. Bio-Rad Laboratories' Colloidal Gold Total Protein Stain was used for this purpose, with absorbance being measured with a Cambridge Technologies Plate Reader (No. 7520). The non-ionic surfactants listed in Table 6 were tested for their ability to produce a low binding surface using the techniques described in Materials and Methods. Polystyrene was used as the hydrophobic test surface and IgG/Au staining was used as the readout.
# IgG (horse) = assay: IgG binding to 24-well plates, surfactant dried or not dried before H2O rinse, colloidal Au; conditions: 0.5% surfactant in H2O/isopropanol (90/10); for Absorbance (550 nm) Dried before H2O rinse: then rinsed 5x; for Absorbance (550 nm) H2O rinsed before drying: not dried, rinsed 5x immediately
# Protocol: Duplicate 24-well plates were prepared as follows. Individual wells were filled with 3 ml of non-ionic surfactants at 0.5% (weight/volume) in H2O/isopropanol (90/10 weight/volume).
# The duplicate plates were incubated for 30 minutes at room temperature on a rocker table and then emptied. One plate was tapped out and then allowed to dry at room temperature in a hood. It was then rinsed 5× with dI H2O. The second plate was not allowed to dry, but instead was immediately rinsed 5× with H2O. The plates were then tested for protein binding by filling each well with 0.5 ml of IgG (horse) at 10 μg/ml in PBS buffer and incubating for 30 minutes on a rocker table at room temperature. The plates were then rinsed with dI H2O and stained overnight with colloidal Au.
# [1] = test system: GAM-IgG-HRP (goat-anti-mouse-IgG-horseradish peroxidase enzyme labeled antibody); assay: Bound enzyme labeled antibody on strips exposed to aqueous surfactant, rinsed or not rinsed, ABTS readout; conditions: 0.1% surfactant in H2O/isopropanol (95/5), not dried, rinsed 5x with dI H2O
# Protocol: Medium binding (catalog #2587) and high binding (catalog #2581) polystyrene 96-well plates (8-well strips) manufactured by Corning Costar were used as follows. […] Strips were incubated for 30 minutes at room temperature on a rocker table. Strips were then emptied and tapped out. […] Immediately following this procedure, each well was aliquoted 0.10 ml of GAM-IgG-HRP (goat-anti-mouse-IgG-horseradish peroxidase enzyme labeled antibody; Kirkegaard and Perry, Gaithersburg, Md., Catalog #074-1806) at 1.0 μg/ml in PBS buffer pH=7.4). Strips were incubated for one hour at room temperature on a rocker table. Strips were then rinsed 5× with PBS buffer containing 0.02% Tween-20 followed by post rinsing with H2O. […] Absorbance at 405 nm was measured on a Cambridge Technologies #7520 Plate Reader.
# HRP-Goat A'Mouse IgG = assay: Enzymatic determination of protein binding to coated medium binding polystyrene plate; conditions: coated medium binding PS; versus uncoated high binding polystyrene plate; absorbance 405 nm
# Protocol: The surfactants were coated onto a medium binding polystyrene plate (Corning Costar No. 2587) as described in Material and Methods. A medium binding polystyrene plate (Corning Costar No. 2587) and a high binding polystyrene plate (Corning Costar No. 2581) were used as controls.
# (a) HRP-Goat A'Mouse IgG: Kirkegaard & Perry Laboratories, Inc. Catalog No. 074-1806. Stock solution: 0.5 mg/ml; working concentration: 0.04 μg/ml. The working concentration was obtained by adding 11 μl of the stock solution per 25 mls of PBS pH 7.4 to produce a work stock (WS), and then diluting 1:6 (i.e., 10 mls WS+50 mls PBS pH 7.4).
# (1) 100 μl-well of HRP-Goat A'Mouse IgG at a concentration of 0.04 μg/ml were added to the test wells and incubated for 1 hour at room temperature.
# (2) The wells were then washed 5 times with the 1M wash solution. Each wash include a 5 minute soak followed by decanting.
# (3) 100 μl/well of substrate (30 mls ABTS+30 mls H2O2) were added to the test wells and incubated for 15 minutes at room temperature in the dark.
# (4) 100 μl/well of stopping solution (1% SDS) were added to the test wells.
# (5) The plates were then shaken and read at 405 nm.
# (6) Reduction in binding was determined by comparing the absorbance measured in step (5) with the absorbance measured for a high binding polystyrene plate which had not been treated with a non-ionic surfactant but otherwise subjected to steps (1) to (5).
# bound protein = assay: Colloidal gold staining of bound protein after MDCK culture in media containing 5% FBS, visual; conditions: colloidal gold after cell culture, visual observation
# How it was run: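 Polystyrene wells coated with non-ionic surfactants, gamma-sterilized at 1.5 Mrad, seeded with 5.6×10^4 MDCK cells per well in medium with 5% FBS and cultured 2 days at 37 °C, 5% CO2. After fixing, bound protein detected by colloidal gold staining; visual assessment only.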
Compound,IgG Protein Binding Absorbance (550 nm) (Horse IgG),Bound Protein Absorbance at 550 nm (IgG),Absorbance (550 nm) Dried before H2O rinse (IgG (horse)),Absorbance (550 nm) H2O rinsed before drying (IgG (horse)),Absorbance (405 nm) High Binding Polystyrene Rinsed [1],Absorbance (405 nm) Medium Binding Polystyrene Rinsed [1],% Reduction in Protein Binding (HRP-Goat A'Mouse IgG) [%],Visual Color Upon Protein Staining (bound protein)
CCCCCCCC/C=C\CCCCCCCCOCCOCCO [PEO(2) OLEYL ETHER],0.00,0.00,0.00,0.14-0.16,2.10,1.90,99.9,None
CCCCCCCCCCCCOCCOCCOCCOCCO [PEO(4) LAURYL ETHER],0.00,,0.08-0.10,0.13-0.16,2.10,1.90,99.3,None
PEO(4) SORBITOL MONO-STEARATE,0.00,,,,,,99.5,None
PEO(20) SORBITOL TRI-STEARATE,0.00,0.00,,,,,99.7,None
SORBITOL MONO-OLEATE,0.00,0.00,,,,,92.7,
